The nature of series [1]: Moisture content of the solid. It is filed as physicochemical. As for the experimental part:
Thermo gravimetric analysis (TGA) used for estimation of solvent/water content of dried material is performed using a TA-instruments TGA-Q500 about 10 mg sample is heated 10°/min in an open pan under nitrogen flow.
Vortioxetine Adipate (30.0 g) and dichloromethane (450 ml) were charged in round bottom flask stirred it for 5 mins. Solution of NaOH (8.1 g in 300 ml water) and solution of NaCl (7.5 g in 75 ml water) were added into above resulting solution and stirred it till clear solution was observed. Organic layer was separated out. HBr in acetic acid (18 g) was added into organic layer and stirred it for 30 mins. Acetic acid (150 ml) was added into reaction mixture. Dichloromethane was distilled out atmospherically from reaction mixture. Acetic acid (200 ml) and water (50 ml) were added into the reaction mixture. Water (1250 ml) was taken into another round bottom flask at 30±5° C. and cooled to 7±3° C. Reaction mixture was added into water containing round bottom flask within 15-30 minutes at 7±3° C. and after addition, reaction mixture's temperature allowed to come to 20±2° C. Reaction mixture was stirred for 30 minutes at 20±2° C. Reaction mixture was filtered and washed it with water (50 ml). Solid was dried to get Vortioxetine Hydrobromide (Form Ad) under vacuum for 6-8 hrs at 45±3° C. (Moisture content of solid is less than 1.0% w/w) […]

A short description of series [2]: Polymorphic stability on exposure to moisture. The class given is physicochemical. As for the experimental part:
Vortioxetine Adipate (30.0 g) and dichloromethane (450 ml) were charged in round bottom flask stirred it for 5 mins. Solution of NaOH (8.1 g in 300 ml water) and solution of NaCl (7.5 g in 75 ml water) were added into above resulting solution and stirred it till clear solution was observed. Organic layer was separated out. HBr in acetic acid (18 g) was added into organic layer and stirred it for 30 mins. Acetic acid (150 ml) was added into reaction mixture. Dichloromethane was distilled out atmospherically from reaction mixture. Acetic acid (200 ml) and water (50 ml) were added into the reaction mixture. Water (1250 ml) was taken into another round bottom flask at 30±5° C. and cooled to 7±3° C. Reaction mixture was added into water containing round bottom flask within 15-30 minutes at 7±3° C. and after addition, reaction mixture's temperature allowed to come to 20±2° C. Reaction mixture was stirred for 30 minutes at 20±2° C. Reaction mixture was filtered and washed it with water (50 ml). Solid was dried to get Vortioxetine Hydrobromide (Form Ad) under vacuum for 6-8 hrs at 45±3° C. (Moisture content of Vortioxetine Hydrobromide (Form Ad) is less than 1.0% w/w). Vortioxetine Hydrobromide (Form Ad) was exposed at 40% RH and 25° C. for 2 hours to get Vortioxetine Hydrobromide (Form A). (Moisture content of Vortioxetine Hydrobromide (Form A) is between 4.2-4.8% w/w)

Structures can show the parent of a compound that is named as a salt.

In the case of `Cc1ccc(Sc2ccccc2N2CCNCC2)c(C)c1` [Vortioxetine Hydrobromide (Form A), Vortioxetine Hydrobromide], in series [1] (after Form Ad was exposed at 40% RH and 25° C. for 2 hours), the Moisture content was 4.2-4.8 % w/w. For `Cc1ccc(Sc2ccccc2N2CCNCC2)c(C)c1` [Vortioxetine Hydrobromide (Form Ad), Vortioxetine Hydrobromide], in series [2], the “Form change when exposed to moisture” value is “converts into form A”. Besides, in series [1] (solid dried under vacuum for 6-8 hrs at 45±3° C.), the Moisture content result is “less than 1.0 % w/w”.
